Read-outs that look alike come from different tables or passages of the source.
Assays:
Format in all cases: cell-based, mouse
[1] = biological target: PSEN1/g-secretase (Homo sapiens, UniProt P49768); assay: Ab production in MEFs transfected with C99-3×FLAG (Western blot 82E1); design: expressed in transfected cells; details: 16 hours
Procedure: FIG. 5. Inhibitor dose-effect on Ab production. PSEN1 KO MEFs stably rescued with GFP-PSEN1 and transfected with C99-3×FLAG (6 h) were treated with different concentrations of (A, B) DAPT, or (C) L-685-458 as indicated. After 16 h, condition media and cell lysates were analyzed by Western blot using 82E1 monoclonal antibody to detect AP. Representative blot is shown in […] for DAPT treatment and quantification is shown in (B): mean+SEM, n=3 independent experiments. (C) PSEN1 KO MEFs. Quantification for L-685-458 is shown in (C), n=1.
Based on these new data, it is crucial to compare the sensitivity to g-secretase inhibitors of the g-secretase complex located in the late endosomes (producing intracellular Ab) and the broadly localised g-secretase complex (producing extracellular Ab). We therefore compared the dose-dependencies of translocated PSEN1/g-secretase with catalytic inhibition by DAPT. MEFs were transfected with APP-C99-3×FLAG for 6 hours and treated with different doses of DAPT. After 16 hours, conditioned media and cell lysates were collected and analysed by Western blotting for total secreted and intracellular Ab, respectively. This resulted for DAPT in a lower IC50 for secreted Ab inhibition (FIG. 5A-B).
Protein concentrations were determined by the Bio-Rad DC protein assay (Bio-Rad). Samples were separated by SDS-PAGE (4-12% Bis-Tris NuPAGE gels in MES running buffer (ThermoFisher Scientific) and transferred onto nitrocellulose membranes (ThermoFisher Scientific). After blocking in 5% non-fat milk, membranes were incubated with primary antibody (4° C., overnight) followed by washing and incubation with horseradish peroxidase (HRP)-conjugated secondary antibodies (1 h, room temperature). After final washing, immunodetection was done using enhanced chemiluminescence (Western Lightning-Plus ECL, PerkinElmer), and immunoreactive protein bands were digitally captured and quantified on a Fuji MiniLAS 3000 imager (Fuji, Dusseldorf, Germany) using Aida Image Analyzer software (Raytest, Germany). Data are represented as mean±SEM of at least three independent experiments.

[2] = system: LAMP1-positive organelles; assay: Size area of LAMP1-positive organelles per cell; details: 1 μM, 16 hrs
Procedure: FIG. 1. DAPT relocates PSEN1/g-secretase to late endosomes. (A) PSEN1 and PSEN2 double knock-out (dKO) MEFs stably expressing GFP-PSEN1 or GFP-PSEN2 were treated for 16 h with 1 μM of DAPT or DMSO and immunostained for GFP (green) and LAMP1 antibodies (red). (B) Quantification of (A) using Mander's coefficient. (C) Ratio of GFP intensity in LAMP1-positive structures over total GFP intensity in the cell, normalized to DMSO-treated cells (control=Ctrl). (D) Quantification of size area of LAMP1-positive organelles per cell showing no significant differences between DMSO and DAPT-treated cells. (E) PSEN1, PSEN2 and NCT triple KO MEFs stably rescued with NCT-SNAP and GFP-PSEN1 were treated for 16 h with 1 μM of DAPT or DMSO (Ctrl). […] All graphs show the median with 95% confidence interval (n=3, ˜20 cells per experiments; p-values are calculated using Mann-Whitney test; ns means non-significant).
(§1) Cells were plated on glass coverslips, transfected 24 h later and processed for indirect immunolabeling the next day (Sannerud et al 2011 Proc Natl Acad Sci USA 108). […] ImageJ software with the plugin JACoP (Bolte and Cordelieres 2006 J Microsc 224) was used for signal overlap quantification (Mander's coefficient). Images were acquired with identical settings and regions of interest (ROI) covering whole cells were used for quantification.

[3] = biological target: T1, PSEN2/g-secretase (Homo sapiens, UniProt P49810); assay: Localisation of GFP-PSEN2/g-secretase in LAMP1-positive organelles (confocal); details: 1 μM, 16 hrs; dKO MEFs rescued with EGFP-PSEN2
T1 construct: expressed in transfected cells
Procedure: (§2) We now questioned whether g-secretase inhibitors would affect subcellular distribution of g-secretase complexes as well. We made use of mouse embryonic fibroblasts (MEFs) in which both PSEN1 an PSEN2 are knocked-out (dKO), rescued with either EGFP-PSEN1 or EGFP-PSEN2 (FIG. 1A). […] The dKO MEFs were then incubated overnight with N—[N-(3,5-difluorophenacetyl)-L-alanyl]-S-phenylglycine t-butyl ester (DAPT). DAPT is a non-transition state analogue (TSA) g-secretase inhibitor that is widely used (Dovey et al 2001 J Neurochem 76).
All culture media and sera are from ThermoFisher Scientific. Mouse embryonic fibroblasts (MEFs), PSEN1 knock-out (1 ko), PSEN1 and PSEN2 double knock-out (dKO, Herreman et al 2000 Nat Cell Biol 2), rescued 1 ko and dKO cell lines cells were routinely grown in Dulbecco's modified Eagle's medium (DMEM/F12) supplemented with 10% fetal calf serum (FCS). All cell lines were maintained in a humidified chamber with 5% CO2 at 37° C. […]
as §1

[4] = biological target: T2, PSEN1/g-secretase complex (Homo sapiens, UniProt P49768); assay: Relocation of GFP-PSEN1/g-secretase to LAMP1-positive late endosomes (confocal immunofluorescence)
T2 construct: expressed in transfected cells
Procedure: as §2
All culture media and sera are from ThermoFisher Scientific. Mouse embryonic fibroblasts (MEFs), PSEN1 knock-out (1 ko), PSEN1 and PSEN2 double knock-out (dKO, Herreman et al 2000 Nat Cell Biol 2), rescued 1 ko and dKO cell lines cells were routinely grown in Dulbecco's modified Eagle's medium (DMEM/F12) supplemented with 10% fetal calf serum (FCS). All cell lines were maintained in a humidified chamber with 5% CO2 at 37° C. Primary hippocampal neuron cultures are derived from E18 rat embryos (Esselens et al 2004 J Cell Biol 166). Stable rescued 1 ko and dKO cell lines were generated using replication-defective recombinant retroviral system (pMCSV vector, Clontech) expressing the gene of interest.
Cells were plated on glass coverslips, transfected 24 h later and processed for indirect immunolabeling the next day (Sannerud et al 2011 Proc Natl Acad Sci USA 108). Images were captured on a confocal microscope (Leica TCS SP5 II, Leica Microsystems) connected to an upright microscope, using an oil-immersion plan Apo 60× A/1.40 NA objective lens. Image acquisition was performed with LAS (Leica Microsystems). Images were further processed with ImageJ and PhotoshopCS6 (Adobe, Calif.). ImageJ software with the plugin JACoP (Bolte and Cordelieres 2006 J Microsc 224) was used for signal overlap quantification (Mander's coefficient). Images were acquired with identical settings and regions of interest (ROI) covering whole cells were used for quantification.

C[C@H](NC(=O)Cc1cc(F)cc(F)c1)C(=O)N[C@H](C(=O)OC(C)(C)C)c1ccccc1 [DAPT, N—[N-(3,5-difluorophenacetyl)-L-alanyl]-S-phenylglycine t-butyl ester]
IC50 ([1]; cell lysates, read-out: IC50 intracellular Ab): 21 nM
IC50 ([1]; conditioned media, read-out: IC50 for secreted Ab inhibition): 16 nM
total size area of LAMP1-positive organelles [2]: no measurable effect
EGFP-PSEN2 in LAMP1-positive organelles, Mander's coefficient [3]: no additional effect
ratio of EGFP-PSEN2 fluorescence within LAMP1-positive compartments over total [3]: remained unaltered
EGFP-PSEN1 in LAMP1-positive organelles, Mander's coefficient ([4]; 1 μM, 16 hrs, PSEN1/PSEN2 dKO MEFs rescued with EGFP-PSEN1): threefold increase
increase in ratio of EGFP-PSEN1 fluorescence within LAMP1-positive compartments over total EGFP-PSEN1 ([4]; 1 μM, 16 hrs, dKO MEFs rescued with EGFP-PSEN1): 50%
translocation of the PSEN1/g-secretase complex to the late endosomes (Rel MFI) ([4]; 1 μM, FIG. 8): induce a translocation of the PSEN1/g-secretase complex to the late endosomes
reversibility of late endosomal relocation after wash-out ([4]; DAPT-containing medium replaced with fresh medium, 16 hrs): fully reversible
dose dependence of PSEN1/g-secretase relocation ([4]; between 1 and 1000 nM): clear dose response
fold increase by which PSEN1/g-secretase relocates ([4]; dose response, normalised to DMSO): almost two-fold

Reference: patent US20220397566A1, “GAMMA-SECRETASE STABILIZING COMPOUND SCREENING ASSAY” (VIB VZW, priority 2019, published 2022)
